This data set is described as follows: Comparison of solubility of derivatives in water. The format is physicochemical. The note with it: shaken vigorously every 5 minutes for 30 seconds until clear. The protocol: Then the solution was shaken vigorously every 5 minutes for 30 seconds. After 30 minutes, the solution was turbid. Another 1.5 mL of water was added and the solution was shaken vigorously every 5 minutes for 30 seconds, and the solution became clear until 9 mL of water was totally added.
24.2 mg of the cholesterol derivative of the mEG7-OH prepared in Example 9 was dispersed in 50 mL of water, and 5 mL of the mixture was taken out and added with 1.5 mL of water. Then the solution was shaken vigorously every 5 minutes for 30 seconds. After 30 minutes, the solution became turbid. Another 5 mL of water was added and the solution was shaken vigorously every 5 minutes for 30 seconds until 25 mL of water was totally added. 5 mL of the solution was taken out from the diluted solution and operated similarly, and the solution became clear until 10 mL of water was added.
111.0 mg of the hexadecanol derivative of the ((mEG3)2-N—C3H6)2—N—C3H6—OH prepared in Example 8 was dispersed in 50 μL of water, and shaken vigorously every 5 minutes for 30 seconds. After 30 minutes, the solution became clear. Another 50 μL of water was added and the solution was shaken vigorously every 5 minutes for 30 seconds, and the solution was still clear until 1.025 mL of water was added.
112.9 mg of the hexadecanol derivative of the mEG7-OH prepared in Example 9 was dispersed in 50 μL of water, and shaken vigorously every 5 minutes for 30 seconds. After 30 minutes, the solution was turbid. Another 50 μL of water was added and the solution was shaken vigorously every 5 minutes for 30 seconds, and the solution became clear until 250 μL of water was added.
After 30 minutes, the solution was clear. Another 50 μL of water was added and the solution was shaken vigorously every 5 minutes for 30 seconds, and the solution was still clear until 1.025 mL of water was added.
After 30 minutes, the solution was turbid. Another 50 μL of water was added and the solution was shaken vigorously every 5 minutes for 30 seconds. After 30 minutes, the solution became clear.

Structures are written as SMILES.

In the case of `CC(C)CCC[C@@H](C)[C@H]1CC[C@H]2[C@@H]3CC=C4C[C@@H](O)CC[C@]4(C)[C@H]3CC[C@]12C` [Cholesterol, cholesterol], the Solubility in water entry is reported as “Less than 0.2 mg/ mg/100 g H2O”. Besides, where the note is “listed as cholesterol”, the Solubility in water entry was “less than 0.2 mg/100 g H2O”.

For the molecule `CC1CCC(C(C)C)C(O)C1` (stereo not drawn) [Menthol, menthol], the Solubility in water result is given as “Less than 100 mg/ mg/100 g H2O”. Besides, the Solubility in water entry (listed as menthol) is reported as “less than 100 mg/100 g H2O”.

Turning to `CCCCCCCCCCCCCCCCO` [Hexadecanol, hexadecanol], the Solubility in water result is listed as “Less than 1 mg/ mg/100 g H2O”. Also, the Solubility in water entry (listed as hexadecanol) is listed as “less than 1 mg/100 g H2O”.

For the origin of these results see patent US11053185B2, “Dendritic polyethylene glycol derivative, and preparation method and application thereof” (JENKEM TECHNOLOGY CO., LTD. (TIANJIN), priority 2017, dated 2021).
